Reference: ChEMBL document CHEMBL1914287, “Synthesis and in vivo evaluation of [18F]N-(2-benzofuranylmethyl)-N'-[4-(2-fluoroethoxy)benzyl]piperazine, a novel σ1 receptor PET imaging agent” (Bioorg Med Chem Lett, 2011)
Blank lines part the entries; values can stand above or below the compound they belong to.

Experiments:
Rhesus monkey [1] = experiment: Inhibition of sigma 1 receptor in conscious monkey brain at 220 to 802 MBq, iv; assay type: functional, organism-based; conditions: Macaca mulatta
Rhesus monkey [2] = experiment: Inhibition of sigma 2 receptor in conscious monkey brain at 220 to 802 MBq, iv; assay type: functional, organism-based; conditions: Macaca mulatta
[3] = Drug uptake in cerebellum of baboon brain at 100 MBq, iv measured within 5 mins by microPET imaging; assay type: ADME, organism-based; conditions: papio hamadryas, in vivo
[4] = Drug uptake in cortex of baboon brain at 100 MBq, iv measured within 5 mins by microPET imaging; assay type: ADME, organism-based; conditions: papio hamadryas, in vivo
[5] = Drug uptake in right striatum of baboon brain at 100 MBq, iv measured within 5 mins by microPET imaging; assay type: ADME, organism-based; conditions: papio hamadryas, in vivo
[6] = Drug uptake in left striatum of baboon brain at 100 MBq, iv measured within 5 mins by microPET imaging; assay type: ADME, organism-based; conditions: papio hamadryas, in vivo
[7] = Drug uptake in thalamus of baboon brain at 100 MBq, iv measured within 5 mins by microPET imaging; assay type: ADME, organism-based; conditions: papio hamadryas, in vivo
[8] = Drug uptake in cerebellum of baboon brain at 100 MBq, iv measured after 60 mins by microPET imaging; assay type: ADME, organism-based; conditions: papio hamadryas, in vivo, 1 h
[9] = Drug uptake in cortex of baboon brain at 100 MBq, iv measured after 60 mins by microPET imaging; assay type: ADME, organism-based; conditions: papio hamadryas, in vivo, 1 h
[10] = Drug uptake in right striatum of baboon brain at 100 MBq, iv measured after 60 mins by microPET imaging; assay type: ADME, organism-based; conditions: papio hamadryas, in vivo, 1 h
[11] = Drug uptake in left striatum of baboon brain at 100 MBq, iv measured after 60 mins by microPET imaging; assay type: ADME, organism-based; conditions: papio hamadryas, in vivo, 1 h
[12] = Drug uptake in thalamus of baboon brain at 100 MBq, iv measured after 60 mins by microPET imaging; assay type: ADME, organism-based; conditions: papio hamadryas, in vivo, 1 h
[13] = Drug uptake in cerebellum of baboon brain at 100 MBq, iv administered 5 mins after haloperidol challenge measured within 3 mins by microPET imaging; assay type: ADME, organism-based; conditions: papio hamadryas, in vivo
[14] = Drug uptake in cerebellum of baboon brain at 100 MBq, iv administered 5 mins after haloperidol challenge measured within 5 mins by microPET imaging; assay type: ADME, organism-based; conditions: papio hamadryas, in vivo
[15] = Drug uptake in cerebellum of baboon brain at 100 MBq, iv administered 5 mins after haloperidol challenge measured after 60 mins by microPET imaging; assay type: ADME, organism-based; conditions: papio hamadryas, in vivo, 1 h
[16] = Drug uptake in cortex of baboon brain at 100 MBq, iv administered 5 mins after haloperidol challenge measured within 3 mins by microPET imaging; assay type: ADME, organism-based; conditions: papio hamadryas, in vivo
[17] = Drug uptake in cortex of baboon brain at 100 MBq, iv administered 5 mins after haloperidol challenge measured within 5 mins by microPET imaging; assay type: ADME, organism-based; conditions: papio hamadryas, in vivo
[18] = Drug uptake in cortex of baboon brain at 100 MBq, iv administered 5 mins after haloperidol challenge measured after 60 mins by microPET imaging; assay type: ADME, organism-based; conditions: papio hamadryas, in vivo, 1 h
[19] = Drug uptake in right striatum of baboon brain at 100 MBq, iv administered 5 mins after haloperidol challenge measured within 3 mins by microPET imaging; assay type: ADME, organism-based; conditions: papio hamadryas, in vivo
[20] = Drug uptake in right striatum of baboon brain at 100 MBq, iv administered 5 mins after haloperidol challenge measured within 5 mins by microPET imaging; assay type: ADME, organism-based; conditions: papio hamadryas, in vivo
[21] = Drug uptake in right striatum of baboon brain at 100 MBq, iv administered 5 mins after haloperidol challenge measured after 60 mins by microPET imaging; assay type: ADME, organism-based; conditions: papio hamadryas, in vivo, 1 h
[22] = Drug uptake in left striatum of baboon brain at 100 MBq, iv administered 5 mins after haloperidol challenge measured within 3 mins by microPET imaging; assay type: ADME, organism-based; conditions: papio hamadryas, in vivo
[23] = Drug uptake in left striatum of baboon brain at 100 MBq, iv administered 5 mins after haloperidol challenge measured within 5 mins by microPET imaging; assay type: ADME, organism-based; conditions: papio hamadryas, in vivo
[24] = Drug uptake in left striatum of baboon brain at 100 MBq, iv administered 5 mins after haloperidol challenge measured after 60 mins by microPET imaging; assay type: ADME, organism-based; conditions: papio hamadryas, in vivo, 1 h
[25] = Drug uptake in thalamus of baboon brain at 100 MBq, iv administered 5 mins after haloperidol challenge measured within 3 mins by microPET imaging; assay type: ADME, organism-based; conditions: papio hamadryas, in vivo
[26] = Drug uptake in thalamus of baboon brain at 100 MBq, iv administered 5 mins after haloperidol challenge measured within 5 mins by microPET imaging; assay type: ADME, organism-based; conditions: papio hamadryas, in vivo
[27] = Drug uptake in thalamus of baboon brain at 100 MBq, iv administered 5 mins after haloperidol challenge measured after 60 mins by microPET imaging; assay type: ADME, organism-based; conditions: papio hamadryas, in vivo, 1 h
[28] = target: T1, Sigma non-opioid intracellular receptor 1 (Homo sapiens, UniProt Q99720); experiment: Binding affinity to sigma 1 receptor by radioligand displacement assay
[29] = Binding affinity to sigma 2 receptor by radioligand displacement assay
[30] = target: Sigma non-opioid intracellular receptor 1 (Cavia porcellus, UniProt Q60492); experiment: Binding affinity to sigma 1 receptor in guinea pig brain membrane; assay type: cell membranes
[31] = Binding affinity to sigma 2 receptor in guinea pig brain membrane; assay type: cell membranes, Cavia porcellus
[32] = target: T1, Sigma non-opioid intracellular receptor 1; experiment: Binding affinity to sigma 1 receptor
[33] = Binding affinity to sigma 2 receptor

T1 sequence (Q99720 whole entry): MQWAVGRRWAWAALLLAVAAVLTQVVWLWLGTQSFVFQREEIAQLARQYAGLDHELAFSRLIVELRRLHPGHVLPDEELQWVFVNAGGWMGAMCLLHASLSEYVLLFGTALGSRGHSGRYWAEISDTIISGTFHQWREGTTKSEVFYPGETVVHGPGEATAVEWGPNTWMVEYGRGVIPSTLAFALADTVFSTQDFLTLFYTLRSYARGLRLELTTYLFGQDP
Chain of Sigma non-opioid intracellular receptor 1 (Cavia porcellus, UniProt Q60492) (Q60492 whole entry): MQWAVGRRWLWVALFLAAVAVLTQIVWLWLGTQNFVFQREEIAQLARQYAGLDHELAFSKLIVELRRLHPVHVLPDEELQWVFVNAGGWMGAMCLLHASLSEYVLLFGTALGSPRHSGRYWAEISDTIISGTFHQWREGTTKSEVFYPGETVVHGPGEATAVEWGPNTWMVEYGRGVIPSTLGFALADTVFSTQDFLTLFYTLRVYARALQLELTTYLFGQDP

Compound: [18F]CCOc1ccc(CN2CCN(Cc3cc4ccccc4o3)CC2)cc1
Drug uptake [3]: Active | Drug uptake [4]: Active | Drug uptake [5]: Active | Drug uptake [6]: Active | Drug uptake [7]: Active | Drug uptake [8]: Active | Drug uptake [9]: Active | Drug uptake [10]: Active | Drug uptake [11]: Active | Drug uptake [12]: Active | Drug uptake [13]: Active | Drug uptake [14]: Not Active | Drug uptake [15]: Not Active | Drug uptake [16]: Active | Drug uptake [17]: Not Active | Drug uptake [18]: Not Active | Drug uptake [19]: Active | Drug uptake [20]: Not Active | Drug uptake [21]: Not Active | Drug uptake [22]: Active | Drug uptake [23]: Not Active | Drug uptake [24]: Not Active | Drug uptake [25]: Active | Drug uptake [26]: Not Active | Drug uptake [27]: Not Active

Compound: FCCC1OC2(CCN(Cc3ccccc3)CC2)c2ccccc21 (stereo not drawn)
Ki [28]: 0.59 nM | Ki [29]: 785 nM

The remaining lines, values ahead:

IC50 (Rhesus monkey [1]): 3.1 nM | IC50 (Rhesus monkey [2]): 6.8 nM
Compound: COc1cc(CCN2CCN(CCCc3ccc(F)cc3)CC2)ccc1OCCF

Ki [30]: 3.39 nM | Ki [31]: 406 nM
Compound: O=C(NC1CCN(Cc2ccccc2)CC1)c1ccccc1F

Ki [32]: 4.3 nM | Ki [33]: 144 nM
Compound: N#Cc1ccc(OCC2CCN(CCCF)CC2)cc1
